Common to all, as to test: spectrophotometric GDH activity in […] cell homogenate
Assay type in all cases: biochemical

For experiment [1], the target named is GDH (glutamate dehydrogenase, GLUD1) (Homo sapiens, UniProt P00367, H507Y).
Experiment [2] concerns the target GDH (glutamate dehydrogenase, GLUD1) (Homo sapiens, UniProt P00367, S498L).
In experiment [3] the target is GDH (glutamate dehydrogenase, GLUD1) (Homo sapiens, UniProt P00367).
Chain of GDH (glutamate dehydrogenase, GLUD1) (Homo sapiens, UniProt P00367) (P00367 54-558): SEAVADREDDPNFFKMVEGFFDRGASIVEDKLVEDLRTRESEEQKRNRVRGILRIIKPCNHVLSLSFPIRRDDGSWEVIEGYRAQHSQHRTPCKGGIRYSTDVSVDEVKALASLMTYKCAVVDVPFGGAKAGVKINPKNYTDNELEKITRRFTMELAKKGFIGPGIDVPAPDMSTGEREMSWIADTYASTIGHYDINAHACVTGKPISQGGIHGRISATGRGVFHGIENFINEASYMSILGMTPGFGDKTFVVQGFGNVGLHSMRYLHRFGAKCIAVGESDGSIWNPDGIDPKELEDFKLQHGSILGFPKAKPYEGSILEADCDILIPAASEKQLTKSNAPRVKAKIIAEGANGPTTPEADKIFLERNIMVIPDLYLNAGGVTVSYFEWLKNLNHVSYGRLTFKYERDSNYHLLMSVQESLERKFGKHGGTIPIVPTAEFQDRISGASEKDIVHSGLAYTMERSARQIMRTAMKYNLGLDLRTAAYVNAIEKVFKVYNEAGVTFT

Chain of GDH (glutamate dehydrogenase, GLUD1) (Homo sapiens, UniProt P00367, S498L) (P00367 54-558 S498L): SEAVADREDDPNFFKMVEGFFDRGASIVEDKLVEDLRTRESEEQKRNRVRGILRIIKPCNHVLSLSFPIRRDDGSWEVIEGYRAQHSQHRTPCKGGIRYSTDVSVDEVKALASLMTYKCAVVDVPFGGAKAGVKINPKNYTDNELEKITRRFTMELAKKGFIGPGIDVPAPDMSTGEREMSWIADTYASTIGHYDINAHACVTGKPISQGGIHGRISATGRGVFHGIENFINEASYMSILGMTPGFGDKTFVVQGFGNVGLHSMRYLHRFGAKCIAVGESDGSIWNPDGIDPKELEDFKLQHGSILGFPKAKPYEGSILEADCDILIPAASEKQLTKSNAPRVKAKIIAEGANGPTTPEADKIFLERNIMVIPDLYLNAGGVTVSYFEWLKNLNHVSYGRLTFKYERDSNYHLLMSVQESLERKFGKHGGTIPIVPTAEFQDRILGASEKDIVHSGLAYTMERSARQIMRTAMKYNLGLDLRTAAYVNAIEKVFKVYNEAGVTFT
Chain of GDH (glutamate dehydrogenase, GLUD1) (Homo sapiens, UniProt P00367, H507Y) (P00367 54-558 H507Y): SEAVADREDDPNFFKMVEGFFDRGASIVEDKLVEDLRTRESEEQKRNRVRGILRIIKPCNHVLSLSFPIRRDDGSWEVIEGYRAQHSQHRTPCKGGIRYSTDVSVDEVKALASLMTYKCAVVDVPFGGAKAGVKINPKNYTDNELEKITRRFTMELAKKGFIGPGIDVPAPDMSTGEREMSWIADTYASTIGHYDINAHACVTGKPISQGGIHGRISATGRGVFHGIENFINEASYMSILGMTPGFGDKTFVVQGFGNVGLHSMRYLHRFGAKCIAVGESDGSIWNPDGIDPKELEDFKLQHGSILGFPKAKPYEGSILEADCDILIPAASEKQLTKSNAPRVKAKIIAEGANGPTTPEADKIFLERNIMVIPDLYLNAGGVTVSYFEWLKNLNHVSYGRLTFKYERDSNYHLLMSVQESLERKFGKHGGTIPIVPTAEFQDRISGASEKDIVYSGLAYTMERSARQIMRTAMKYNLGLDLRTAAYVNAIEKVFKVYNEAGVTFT

`O=C(O[C@@H]1Cc2c(O)cc(O)cc2O[C@@H]1c1cc(O)c(O)c(O)c1)c1cc(O)c(O)c(O)c1` [EGCG]: the IC50 in experiment [1] stood at 1020 nM; in experiment [2] it was 1070 nM; in experiment [3] it was 1050 nM.
Consider `Nc1nc2c(ncn2[C@@H]2O[C@H](COP(=O)(O)OP(=O)(O)OP(=O)(O)O)[C@@H](O)[C@H]2O)c(=O)[nH]1` [GTP], for which the IC50 in experiment [1] came to 314000 nM; in experiment [2] it was 40700 nM; in experiment [3] it was 48 nM.

The IC50 is the concentration that inhibits the measured activity by half. Read a high IC50 as weaker potency in that assay.

For the origin of these results see publication PMC5545170 (Pediatric diabetes, 2017).
